Data taken from paper PMC10254233, “Synthesis and In Vitro Biological Evaluation of p-Carborane-Based Di-tert-butylphenol Analogs” (Molecules, 2023).

Key:
A549 lung adenocarcinoma [1] = test: Cell viability, MTT assay, A549; assay type: cell-based, human; conditions: Homo sapiens, A549; 72 h, mean ± SD
Procedure: (§1) Five human cell lines (A375 melanoma, A549 lung adenocarcinoma, HCT116 and HT29 colorectal carcinoma, MDA-MB-231 triple-negative breast adenocarcinoma) were used to study the antitumor effects of the di-tert-butylphenols and their respective carborane analogs. All selected cell lines were derived from inflammation-associated tumors.
(§2) After the incubation period, the supernatant was discarded from the wells, and the cells were washed two times with 200 µL of PBS. Next, MTT solution at a final concentration of 0.5 mg/mL was added and incubated at 37 °C until purple formazan crystals were formed (30 min to one hour). After incubation, the dye was discarded. In order to dissolve the formed formazan crystals DMSO was added, and the absorbance was measured at λmax = 540 nm, with the reference/background wavelength of 670 nm. All results are expressed as a percentage of the control value which was arbitrary set to 100%. After 72 h treatment, cells were washed with 200 µL of PBS and fixed with 4% paraformaldehyde (PFA) for 15 min at room temperature (RT). Next, cells were stained with 1% CV solution. After 20 min, cells were washed in tap water and dried on air. Dye was dissolved in 33% acetic acid and the absorbance was measured at λmax = 540 nm, with the reference/background wavelength of 670 nm. Results were expressed as a percentage of the control value which was arbitrary set to 100%.
(§3) 1. General methods, materials, and procedures
(§4) 1.1.1. Reagents and cells
(§5) Reagents and cells were obtained from following manufacturers: Capricorn Scientific GmbH (Hessen, Germany) – Culture medium RPMI-1640, Dulbecco's Modified Eagle Medium (DMEM), and fetal bovine serum (FBS). Serva (Heidelberg, Germany) – Paraformaldehyde (PFA). Sigma (St. Louis, MO, USA) – Ethylenediaminetetraacetic acid (EDTA), Dimethyl sulfoxide (DMSO), chloroquine, CV, Triton X-100, RNase, PI, PBS, 3-MA, CFSE, and fluorescent mounting medium. AppliChem (MO, USA) –MTT. Thermo Fisher Scientific (Waltham, MA, USA) – DHR. R&D Systems (Minneapolis, MN, USA) – ApoStat. BD (Pharmingen, San Diego, SAD) – Annexin V-FITC (AnnV). Biological Industries (Cromwell, CT, USA) – Penicillin Streptomycin solution. American Type Culture Collection (ATCC, Manassas, Virginia, USA) – Human lung carcinoma (A549), human breast adenocarcinoma (MDA-MB-231), human colorectal ade-nocarcinoma (HT-29), human colorectal carcinoma (HCT116) and human melanoma (A375).
(§6) Cell lines (A375, HCT116, HT-29 and MDA-MB-231) were cultivated in HEPES-buffered RPMI-1640 medium while A549 cell line was cultivated in Dulbecco's Modified Eagle Medium (DMEM) which were previously supplemented with 10% heat-inactivated FBS, penicillin (100 units/mL), and streptomycin (100 μg/mL). All cells were kept at 37 °C in a humidified atmosphere with 5% CO2. For viability determi-nation cells were seeded at following densities in 96-well plates: 4 x 10^3 cells/well (A375, HT-29 and MDA-MB-231), 5 x 10^3 cells/well (HCT116), and 3 x 10^3 cells/well (A549). […]
(§7) Afterwards, cells were washed with phosphate-buffered saline (PBS) and stained with AnnV (15 μg/mL) and PI (15 μg/mL). After 15 min incubation at room temperature (RT) protected from light the cells were resuspended in AnnV-binding buffer and analysed using flow cytom-etry. HCT116 cells were incubated with pan-caspase inhibitor Apostat for 30 min at 37 °C to determine whether detected apoptosis was mediated by caspase activation. Afterwards, cells were washed with PBS and analyzed using flow cytometry. HCT116 cells were stained with 1 µg/mL of AO solution for 15 min at 37 °C to detect the presence of autophagic cell death. Afterwards cells were washed with PBS, resuspended and analyzed by flow cytometry (CyFlow® Space Partec using the PartecFloMax® software

A549 lung adenocarcinoma [2] = test: Cell viability, crystal violet (CV) assay, A549; assay type: cell-based; conditions: Homo sapiens, 72 h, mean ± SD
Procedure: as §1, §2, §3, §4
as §5, with “American Type Culture Collection (ATCC, Manassas, Virginia, USA) – Human lung carcinoma (A549), human breast adenocarcinoma (MDA-MB-231), human colorectal ade-nocarcinoma (HT-29), human colorectal carcinoma (HCT116) and human melanoma (A375).” left out
as §7, with “HCT116 cells were stained with 1 µg/mL of AO solution for 15 min at 37 °C to detect the presence of autophagic cell death.” left out

A375 melanoma [3] = test: Cell viability, MTT assay, A375; assay type: cell-based, human; conditions: Homo sapiens, A-375; 72 h, mean ± SD
Procedure: as §1, §2, §3, §4, §5, §6
(§8) Afterwards, cells were washed with phosphate-buffered saline (PBS) and stained with AnnV (15 μg/mL) and PI (15 μg/mL). […]
(§9) PBS and analyzed using flow cytometry. HCT116 cells were stained with 1 µg/mL of AO solution for 15 min at 37 °C to detect the presence of autophagic cell death. Afterwards cells were washed with PBS, resuspended and analyzed by flow cytometry (CyFlow® Space Partec using the PartecFloMax® software

[4] = system: HCT116 colorectal carcinoma; test: Cell viability, crystal violet (CV) assay, HCT116; assay type: cell-based; conditions: Homo sapiens, HCT-116; 72 h, mean ± SD
Procedure: as §1, §2, §3, §4
as §5, with “American Type Culture Collection (ATCC, Manassas, Virginia, USA) – Human lung carcinoma (A549), human breast adenocarcinoma (MDA-MB-231), human colorectal ade-nocarcinoma (HT-29), human colorectal carcinoma (HCT116) and human melanoma (A375).” left out
as §7, with “HCT116 cells were stained with 1 µg/mL of AO solution for 15 min at 37 °C to detect the presence of autophagic cell death.” left out

physchem = conditions: pH 7.4
[5] = system: HT-29 colorectal carcinoma; test: Cell viability, MTT assay, HT-29; assay type: cell-based, human; conditions: Homo sapiens, HT-29; 72 h, mean ± SD
Procedure: as §1, §2, §3, §4, §5, §6, §7

[6] = system: MDA-MB-231 triple-negative breast adenocarcinoma; test: Cell viability, crystal violet (CV) assay, MDA-MB-231; assay type: cell-based; conditions: Homo sapiens, 72 h, mean ± SD
Procedure: as §1, §2, §3, §4
as §5, with “American Type Culture Collection (ATCC, Manassas, Virginia, USA) – Human lung carcinoma (A549), human breast adenocarcinoma (MDA-MB-231), human colorectal ade-nocarcinoma (HT-29), human colorectal carcinoma (HCT116) and human melanoma (A375).” left out
as §7, with “HCT116 cells were stained with 1 µg/mL of AO solution for 15 min at 37 °C to detect the presence of autophagic cell death.” left out

[7] = system: HT-29 colorectal carcinoma; test: Cell viability, crystal violet (CV) assay, HT-29; assay type: cell-based; conditions: Homo sapiens, 72 h, mean ± SD
Procedure: as §1, §2, §3, §4
as §5, with “American Type Culture Collection (ATCC, Manassas, Virginia, USA) – Human lung carcinoma (A549), human breast adenocarcinoma (MDA-MB-231), human colorectal ade-nocarcinoma (HT-29), human colorectal carcinoma (HCT116) and human melanoma (A375).” left out
as §7, with “HCT116 cells were stained with 1 µg/mL of AO solution for 15 min at 37 °C to detect the presence of autophagic cell death.” left out

[8] = system: MDA-MB-231 triple-negative breast adenocarcinoma; test: Cell viability, MTT assay, MDA-MB-231; assay type: cell-based, human; conditions: Homo sapiens, MDA-MB-231; 72 h, mean ± SD
Procedure: as §1, §2, §3, §4, §5, §6, §7

[9] = system: HCT116 colorectal carcinoma; test: Cell viability, MTT assay, HCT116; assay type: cell-based, human; conditions: Homo sapiens, HCT-116; 72 h, mean ± SD
Procedure: as §1, §2, §3, §4, §5, §6, §8, §9

ovine COX-1 = molecular target: T1, ovine COX-1 (Ovis aries, UniProt P05979); test: COX Fluorescent Inhibitor Screening Assay, COX-1; assay type: biochemical; conditions: in duplicate
T1 construct: purchased Cayman Chemical Company
T1 sequence (P05979 25-600): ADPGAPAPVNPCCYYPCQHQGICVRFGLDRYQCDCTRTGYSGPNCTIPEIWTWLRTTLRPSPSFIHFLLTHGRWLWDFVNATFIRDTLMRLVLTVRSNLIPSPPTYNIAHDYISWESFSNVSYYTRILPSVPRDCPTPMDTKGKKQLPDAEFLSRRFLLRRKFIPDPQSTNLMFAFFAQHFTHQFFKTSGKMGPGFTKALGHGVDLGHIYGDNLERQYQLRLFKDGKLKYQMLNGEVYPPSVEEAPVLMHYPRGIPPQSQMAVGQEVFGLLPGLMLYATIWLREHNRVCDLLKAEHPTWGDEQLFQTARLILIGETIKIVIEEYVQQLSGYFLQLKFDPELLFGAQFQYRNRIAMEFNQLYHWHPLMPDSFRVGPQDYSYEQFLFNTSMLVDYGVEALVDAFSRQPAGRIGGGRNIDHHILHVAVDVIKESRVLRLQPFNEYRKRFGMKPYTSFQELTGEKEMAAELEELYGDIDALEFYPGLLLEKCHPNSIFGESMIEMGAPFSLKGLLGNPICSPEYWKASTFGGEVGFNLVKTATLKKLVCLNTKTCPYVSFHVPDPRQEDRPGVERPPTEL
Procedure: (§10) COX inhibition activity against ovine COX-1 and human COX-2 was determined using the fluorescence-based COX assay COX Fluorescent Inhibitor Screening Assay Kit (Cayman Chemical Company, Ann Arbor, MI, USA) according to the manufacturer’s instructions as previously reported by us. All compounds were screened at a concentration of 100 µM in duplicate.

A375 melanoma [10] = test: Cell viability, crystal violet (CV) assay, A375; assay type: cell-based; conditions: Homo sapiens, A-375; 72 h, mean ± SD
Procedure: as §1, §2, §3, §4
as §5, with “American Type Culture Collection (ATCC, Manassas, Virginia, USA) – Human lung carcinoma (A549), human breast adenocarcinoma (MDA-MB-231), human colorectal ade-nocarcinoma (HT-29), human colorectal carcinoma (HCT116) and human melanoma (A375).” left out
as §7, with “HCT116 cells were stained with 1 µg/mL of AO solution for 15 min at 37 °C to detect the presence of autophagic cell death.” left out

human recombinant COX-2 = molecular target: T2, human recombinant COX-2 (Homo sapiens, UniProt P35354); test: COX Fluorescent Inhibitor Screening Assay, COX-2; assay type: biochemical; conditions: in duplicate
T2 construct: purchased Cayman Chemical Company
T2 sequence (P35354 18-604): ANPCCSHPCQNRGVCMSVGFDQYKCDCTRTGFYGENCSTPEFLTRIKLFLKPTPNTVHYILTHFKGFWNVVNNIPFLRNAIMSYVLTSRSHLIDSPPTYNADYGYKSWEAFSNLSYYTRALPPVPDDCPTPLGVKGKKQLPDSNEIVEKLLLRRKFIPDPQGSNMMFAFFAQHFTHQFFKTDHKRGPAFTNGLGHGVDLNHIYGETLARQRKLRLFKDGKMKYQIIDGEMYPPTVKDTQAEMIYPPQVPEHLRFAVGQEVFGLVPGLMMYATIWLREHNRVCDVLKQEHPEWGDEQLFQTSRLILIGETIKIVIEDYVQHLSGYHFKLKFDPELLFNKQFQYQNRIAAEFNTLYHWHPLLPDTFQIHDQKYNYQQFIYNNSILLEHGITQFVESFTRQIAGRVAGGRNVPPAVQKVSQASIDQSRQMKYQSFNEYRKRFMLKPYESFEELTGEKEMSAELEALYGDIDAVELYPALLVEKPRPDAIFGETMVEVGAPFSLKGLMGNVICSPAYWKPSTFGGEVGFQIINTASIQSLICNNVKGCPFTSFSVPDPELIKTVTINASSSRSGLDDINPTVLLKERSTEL
Procedure: as §10

[11] = served as references for the HPLC method; cited from earlier work

Structure (SMILES) | IC50 (A549 lung adenocarcinoma [1]) [µM] | IC50 (A549 lung adenocarcinoma [2]) [µM] | IC50 (A375 melanoma [3]) [µM] | IC50 [4] [µM] | chromatographic logD (physchem) | IC50 [5] [µM] | IC50 [6] [µM] | IC50 [7] [µM] | IC50 [8] [µM] | IC50 [9] [µM] | inhibition at 100 µM (ovine COX-1) [%] | IC50 (A375 melanoma [10]) [µM] | inhibition at 100 µM (human recombinant COX-2) [%] | logD7.4 of HPLC references [11]
CCN1CC/C(=C\c2cc(C(C)(C)C)c(O)c(C(C)(C)C)c2)S1(=O)=O [Compound S-2474, 2,6-Bis(1,1-dimethylethyl)-4-[(E)-(2-ethyl-1,1-dioxido-5-isothiazolidinylidene)methyl]phenol] | 16.2 ± 1.2 | 17.9 ± 1.2 | 13.2 ± 2.7 | 23.7 ± 1.9 | 3.75 | 16.1 ± 1.1 | 43.5 ± 1.8 | 23.8 ± 1.7 | 34.8 ± 1.7 | 17.5 ± 1 | 38 | 19.2 ± 0.7 | 86 | –
CC(C)(C)c1cc(C=C2CCOC2=O)cc(C(C)(C)C)c1O [KME-4, 3-([3,5-bis(1,1-dimethylethyl)-4-hydroxyphenyl]methylene)dihydro-2(3H)-furanone] | 21.9 ± 0.7 | 36.3 ± 2.8 | 13.8 ± 0.6 | 36.2 ± 1.9 | 3.79 | 18.5 ± 1.5 | 88.6 ± 2.4 | 36.2 ± 1.9 | 80.9 ± 7.3 | 18.4 ± 4.6 | – | 36.4 ± 1.3 | – | –
CC1=C(C(=O)Nc2ccccc2)S(=O)(=O)CCO1 [Oxycarboxin] | – | – | – | – | – | – | – | – | – | – | – | – | – | 1.13
